Experimental data taken from patent US6482438B1, “Apparatus and process for preparing crystalline particles” (SmithKline Beecham Corporation, priority 1998, dated 2002).

Experiments:
[1] = Malvern laser diffraction particle sizing (Mastersizer X) of crystalline fluticasone propionate particles; assay type: physicochemical
Procedure: A continuous flow reaction cell with 2 diametrically opposite inlets at the bottom and a run-out ca. half way up the side of the vessel is used in the experiment. The drug substance (fluticasone propionate, FP) is dissolved in acetone (15 vol, 0.133 M) at elevated temperature (50-56° C.) and then allowed to cool to ambient temperature (20° C.). A solution of FP is then pumped using a peristaltic pump into one of the bottom inlets of the reaction cell. Water was similarly pumped via the other inlet from a water reservoir using a second pump.
Re-crystallisations are carried out from various mixtures of acetone and water (by altering the flow rates of each) as dictated by the parameters set out in the experimental design. Efficient mixing of the two streams is ensured with the aid of a non-grinding magnetic stirrer bar.
(§1) Before carrying out any particular crystallisation, the cell is pre-charged with a mixture of acetone/water (the ratio of each being the same as the relative pumping rates from the two reservoirs). By doing this, the relative concentrations of the water to acetone remains constant throughout the crystallisation. The tip of the sono-probe is arranged so that it is just above the inlet for the FP solution. When the magnetic stirrer, sono-probe and pumps are turned on, rapid onset of crystallisation takes place. A suspension of the crystallisation mixture exits via the overflow directly on to a filter funnel thus minimising the opportunity for further crystal growth.
(§2) Using the above set-up, the experiments set out in the experimental design shown below were carried out and the samples of damp solid harvested and dried in vacuo at ambient temperature. All the samples were sized using the Malvern laser diffraction particle sizer and the results analysed using multi-dimensional model fitting software (such as Design Expert 5).
Ultrasound Power is given as a percentage of maximum (50 W). Ultrasound frequency was 22 kHz.
(§3) Samples were analysed using Malvern laser diffraction particle sizing.
Instrument: Malvern Mastersizer X
Lens: 45 mm Reverse Fourier
Analysis: 0607 presentation code
(§4) Dispersant: Iso Octane / Lecithin 0.05% w/w
Pre dispersion: Sonicate for 10 seconds
One analysis per sample was carried out. The median particle size (D50), particle size at 90% undersize (D90) and particle size at 10% undersize (D10) were used as responses to characterise the medium, course, and fine particles. In addition a fourth response, uniformity index (Ul) was calculated as a measure of the breadth of the distribution.
Uniformity Index (Ul) is calculated as 100×D10/D90.

[2] = Malvern laser diffraction particle sizing (Mastersizer S) of crystalline salmeterol xinafoate particles; assay type: physicochemical; details: methanol solution 7 ml/min
Procedure: A continuous flow reaction cell with 2 diametrically opposite inlets at the bottom and a run-out ca. half way up the side of the vessel is used in the experiment. […] The drug substance (salmeterol xinafoate) is dissolved in methanol (6 vol) at elevated temperature
(65° C.). A solution of salmeterol xinafoate (0.276 M) is then pumped (a fixed rate of 7 ml/min) using a peristaltic pump into one of the bottom inlets of the reaction cell. Cold water was similarly pumped via the other inlet from a water reservoir using a second pump at rates as dictated by the experimental design.
Re-crystallisations are carried out from various mixtures of methanol and water as dictated by the parameters set out in the experimental design. Efficient mixing of the two streams is ensured with the aid of a non-grinding magnetic stirrer bar. The stirrer speed is maintained constant at all times. The stir speed is set at such a rate so as to induce a minimum amount of vortex.
as §1, with “methanol/water” for “acetone/water”, “methanol” for “acetone”, “salmeterol” for “FP”
as §2
Ultrasound Power is given as a percentage of maximum (600 W). Ultrasound frequency was 22 kHz.
as §3
Instrument: Malvern Mastersizer S
Lens: 300 mm Reverse Fourier
Analysis: presentation code 30 GE
as §4
Pre dispersion: Sonicate for 1 Minute
One analysis per sample was carried out. The median particle size (D50), particle size at 90% undersize (D90) and particle size at 10 % undersize (D10) were used as responses to characterise the medium, course, and fine particles. In addition a fourth response, uniformity index (Ul) was calculated as a measure of the breadth of the distribution.
Uniformity Index (Ul) is calculated as 100×D 10/D90.

[3] = Run 1: water 24 ml/min, acetone solution 3.50 ml/min, stirring 40.00 %, ultrasound 0.00 % of 50 W
[4] = Run 2: water 18 ml/min, acetone solution 5.25 ml/min, stirring 20.00 %, ultrasound 20.00 % of 50 W
[5] = Run 3: water 24 ml/min, acetone solution 3.50 ml/min, stirring 0.00 %, ultrasound 40.00 % of 50 W
[6] = Run 4: water 12 ml/min, acetone solution 7.00 ml/min, stirring 0.00 %, ultrasound 40.00 % of 50 W
[7] = Run 5: water 24 ml/min, acetone solution 7.00 ml/min, stirring 40.00 %, ultrasound 40.00 % of 50 W
[8] = Run 6: water 18 ml/min, acetone solution 5.25 ml/min, stirring 20.00 %, ultrasound 20.00 % of 50 W
[9] = Run 7: water 12 ml/min, acetone solution 3.50 ml/min, stirring 0.00 %, ultrasound 0.00 % of 50 W
[10] = Run 8: water 12 ml/min, acetone solution 7.00 ml/min, stirring 40.00 %, ultrasound 0.00 % of 50 W
[11] = Run 9: water 12 ml/min, acetone solution 3.50 ml/min, stirring 40.00 %, ultrasound 40.00 % of 50 W
[12] = Run 10: water 24 ml/min, acetone solution 7.00 ml/min, stirring 0.00 %, ultrasound 0.00 % of 50 W
[13] = Run 1: water 14 ml/min, ultrasound 10.00 % of 600 W
[14] = Run 2: water 56 ml/min, ultrasound 10.00 % of 600 W
[15] = Run 3: water 56 ml/min, ultrasound 90.00 % of 600 W
[16] = Run 4: water 56 ml/min, ultrasound 90.00 % of 600 W
[17] = Run 5: water 56 ml/min, ultrasound 10.00 % of 600 W
[18] = Run 6: water 14 ml/min, ultrasound 10.00 % of 600 W
[19] = Run 7: water 35 ml/min, ultrasound 50.00 % of 600 W
[20] = Run 8: water 14 ml/min, ultrasound 90.00 % of 600 W
[21] = Run 9: water 35 ml/min, ultrasound 50.00 % of 600 W
[22] = Run 10: water 14 ml/min, ultrasound 90.00 % of 600 W

SMILES: CCC(=O)O[C@]1(C(=O)SCF)[C@H](C)C[C@H]2[C@@H]3C[C@H](F)C4=CC(=O)C=C[C@]4(C)[C@@]3(F)[C@@H](O)C[C@@]21C [fluticasone propionate]
- D10 particle size at 10% undersize [1, 3]: 1.07 μm
- D50 median particle size [1, 3]: 4.95 μm
- D90 particle size at 90% undersize [1, 3]: 18.91 μm
- UI uniformity index (100×D10/D90) [1, 3]: 5.7%
- D10 particle size at 10% undersize [1, 4]: 1.02 μm
- D50 median particle size [1, 4]: 4.56 μm
- D90 particle size at 90% undersize [1, 4]: 14.29 μm
- UI uniformity index (100×D10/D90) [1, 4]: 7.1%
- D10 particle size at 10% undersize [1, 5]: 1 μm
- D50 median particle size [1, 5]: 4.2 μm
- D90 particle size at 90% undersize [1, 5]: 18.3 μm
- UI uniformity index (100×D10/D90) [1, 5]: 5.3%
- D10 particle size at 10% undersize [1, 6]: 2.62 μm
- D50 median particle size [1, 6]: 7.52 μm
- D90 particle size at 90% undersize [1, 6]: 20.83 μm
- UI uniformity index (100×D10/D90) [1, 6]: 12.6%
- D10 particle size at 10% undersize [1, 7]: 1.05 μm
- D50 median particle size [1, 7]: 4.3 μm
- D90 particle size at 90% undersize [1, 7]: 14.66 μm
- UI uniformity index (100×D10/D90) [1, 7]: 7.2%
- D10 particle size at 10% undersize [1, 8]: 0.89 μm
- D50 median particle size [1, 8]: 5.28 μm
- D90 particle size at 90% undersize [1, 8]: 17.16 μm
- UI uniformity index (100×D10/D90) [1, 8]: 5.1%
- D10 particle size at 10% undersize [1, 9]: 2.32 μm
- D50 median particle size [1, 9]: 9.34 μm
- D90 particle size at 90% undersize [1, 9]: 28.97 μm
- UI uniformity index (100×D10/D90) [1, 9]: 8%
- D10 particle size at 10% undersize [1, 10]: 1.06 μm
- D50 median particle size [1, 10]: 3.46 μm
- D90 particle size at 90% undersize [1, 10]: 9.33 μm
- UI uniformity index (100×D10/D90) [1, 10]: 11.4%
- D10 particle size at 10% undersize [1, 11]: 0.97 μm
- D50 median particle size [1, 11]: 3.67 μm
- D90 particle size at 90% undersize [1, 11]: 11.47 μm
- UI uniformity index (100×D10/D90) [1, 11]: 8.5%
- D10 particle size at 10% undersize [1, 12]: 1.48 μm
- D50 median particle size [1, 12]: 9.79 μm
- D90 particle size at 90% undersize [1, 12]: 37.62 μm
- UI uniformity index (100×D10/D90) [1, 12]: 3.9%

SMILES: OCc1cc(C(O)CNCCCCCCOCCCCc2ccccc2)ccc1O (centres unmarked) [salmeterol xinafoate]
- D10 particle size at 10% undersize [2, 13]: 1.6 μm
- D50 median particle size [2, 13]: 10.1 μm
- D90 particle size at 90% undersize [2, 13]: 24.78 μm
- UI uniformity index (100×D10/D90) [2, 13]: 6.46%
- D10 particle size at 10% undersize [2, 14]: 0.48 μm
- D50 median particle size [2, 14]: 3.9 μm
- D90 particle size at 90% undersize [2, 14]: 10.21 μm
- UI uniformity index (100×D10/D90) [2, 14]: 4.70%
- D10 particle size at 10% undersize [2, 15]: 0.64 μm
- D50 median particle size [2, 15]: 4.24 μm
- D90 particle size at 90% undersize [2, 15]: 14.45 μm
- UI uniformity index (100×D10/D90) [2, 15]: 4.42%
- D10 particle size at 10% undersize [2, 16]: 0.53 μm
- D50 median particle size [2, 16]: 4.29 μm
- D90 particle size at 90% undersize [2, 16]: 17.62 μm
- UI uniformity index (100×D10/D90) [2, 16]: 3.01%
- D10 particle size at 10% undersize [2, 17]: 0.39 μm
- D50 median particle size [2, 17]: 4.74 μm
- D90 particle size at 90% undersize [2, 17]: 16.8 μm
- UI uniformity index (100×D10/D90) [2, 17]: 2.32%
- D10 particle size at 10% undersize [2, 18]: 2.17 μm
- D50 median particle size [2, 18]: 11.09 μm
- D90 particle size at 90% undersize [2, 18]: 23.37 μm
- UI uniformity index (100×D10/D90) [2, 18]: 9.28%
- D10 particle size at 10% undersize [2, 19]: 1.08 μm
- D50 median particle size [2, 19]: 4.75 μm
- D90 particle size at 90% undersize [2, 19]: 13.45 μm
- UI uniformity index (100×D10/D90) [2, 19]: 8.03%
- D10 particle size at 10% undersize [2, 20]: 1.63 μm
- D50 median particle size [2, 20]: 6.37 μm
- D90 particle size at 90% undersize [2, 20]: 20.37 μm
- UI uniformity index (100×D10/D90) [2, 20]: 8.00%
- D10 particle size at 10% undersize [2, 21]: 1.88 μm
- D50 median particle size [2, 21]: 4.99 μm
- D90 particle size at 90% undersize [2, 21]: 11.76 μm
- UI uniformity index (100×D10/D90) [2, 21]: 15.99%
- D10 particle size at 10% undersize [2, 22]: 1.77 μm
- D50 median particle size [2, 22]: 7.86 μm
- D90 particle size at 90% undersize [2, 22]: 24.96 μm
- UI uniformity index (100×D10/D90) [2, 22]: 7.09%
